Source: patent US20080234229A1, “Novel Therapeutic Agents for the Treatment of Cancer, Metabolic Diseases and Skin Disorders” (AUSPEX PHARMACEUTICALS, INC., priority 2005, published 2008)
pIC50: −log10 of the molar value.

What was measured:
A375 cells = experiment: A375 Tumor Cell Proliferation Assay (Alamar Blue); type: cell-based, human; details: for TGI (Total Growth Inhibition) / pIC50: A375 cells, 72 to 168 hours, reference data; for pIC50: A-375, read-out: IC50 (50% Inhibitory Concentration); for growth inhibitory effect compared to Targretin: FIG. 1
Experimental: A375 cells (5,000 per well in 90% RPMI-1640 plus 10% Fetal Bovine Serum [FBS]) were pre-incubated in a black clear bottom 96-well plate in an atmosphere of 5% CO2 at 37° C. for 24 hours. Stock solutions of compounds in DMSO were diluted using a buffer and dilutions were added to each well. […] The final assay pH was 7.4. The cells were incubated in RPMI-1640 with each compound for an additional 72 to 168 hours. Alamar Blue was added and the plate was incubated for an additional 12 hours. Fluorescence intensity was measured using a Gemini plate reader with excitation at 530 nm and emission at 590 nm. A decrease of 50 percent or more (≧50%) in fluorescence intensity relative to vehicle treated controls is an indication of significant anti-cancer activity.
TGI (Total Growth Inhibition): Test compound concentration where the increase in number or mass of cells after 72 to 168 hours is reduced to equal that at time t=0.

SW-480 cells = experiment: SW-480 Tumor Cell Proliferation Assay (Alamar Blue); type: cell-based; details: human SW480 carcinoma cells; for growth inhibitory effect compared to Targretin: FIG. 3; for growth inhibitory effect in the presence of Irinotican: varying concentrations, combination with Irinotican, FIG. 6 and 7
Experimental: SW-480 cells (4×10^3/well in 90% EMEM medium plus 2 mM glutamine, 1 mM pyruvate, 0.1 mM non-essential amino acids and 10% Fetal Bovine Serum [FBS]), are pre-incubated in 96-well plates in an atmosphere of 5% CO2 at 37° C. for 24 hours. Test compounds and/or vehicle is then added to each well with a final concentration of 0.5% DMSO, pH 7.4 in EMEM for an additional 72 hours. After a further 6-hour incubation in the presence of Alamar Blue, fluorescence intensity is measured using a Gemini plate reader with excitation at 530 nm and emission at 590 nm.

SKMES cells = experiment: SKMES Tumor Cell Proliferation Assay (Alamar Blue); type: cell-based; details: human SKMES carcinoma cells; for growth inhibitory effect compared to Targretin: FIG. 2
Experimental: SKMES cells (8×10^3/well in 90% RPMI-1640 medium plus 2 mM glutamine, 10 mM HEPES and 10% Fetal Bovine Serum [FBS]), are pre-incubated in 96-well plates in an atmosphere of 5% CO2 at 37° C. for 24 hours. Test compounds and/or vehicle is then added to each well with a final concentration of 0.5% DMSO, pH 7.4 in RPMI-1640 for an additional 72 hours. After a further 150 minutes incubation in the presence of Alamar Blue, fluorescence intensity is measured using a Gemini plate reader with excitation at 530 nm and emission at […].

In the case of `COc1cccc2c1C(=O)c1c(O)c3c(c(O)c1C2=O)C[C@@](O)(C(=O)CO)C[C@@H]3O[C@H]1C[C@H](N)[C@H](O)[C@H](C)O1` [Doxorubicin], the TGI (Total Growth Inhibition) (A375 cells) was 0.3 µM, the pIC50 (A375 cells; Homo sapiens) was 6.72 and the CC50 (A375 cells; Homo sapiens, A-375, read-out: LC50 (50% Lethal Concentration)) was 8 µM.

With `C=C(c1ccc(B(O)O)cc1)c1cc2c(cc1C)C(C)(C)CCC2(C)C` [Example 5, 4-[1-(3,5,5,8,8-Pentamethyl-5,6,7,8-tetrahydro-naphthalen-2-yl)-vinyl]-phenylboronic acid] the “growth inhibitory effect compared to Targretin” value (A375 cells; human A375 carcinoma cells) was “enhanced activity”, the “growth inhibitory effect in the presence of Taxol” value (A375 cells; human A375 carcinoma cells, varying concentrations, combination with Taxol, FIG. 5) was “synergism” and the “growth inhibitory effect compared to Targretin” value (SW-480 cells) was “enhanced activity”. The “growth inhibitory effect in the presence of Irinotican” value (SW-480 cells) was “synergism”, the “growth inhibitory effect compared to Targretin” value (SKMES cells) was “enhanced activity” and the “growth inhibitory effect in the presence of Taxol” value (SKMES cells; varying concentrations, combination with Taxol, FIG. 4) was “synergism”.

With `C=C(c1ccc(B2OC(C)(C)C(C)(C)O2)cc1)c1cc2c(cc1C)C(C)(C)CCC2(C)C` [Example 4, 4,4,5,5-Tetramethyl-2-{4-[1-(3,5,5,8,8-pentamethyl-5,6,7,8-tetrahydro-naphthalen-2-yl)-vinyl]-phenyl}-[1,3,2]dioxaborolane] the “growth inhibitory effect compared to Targretin” value (A375 cells; human A375 carcinoma cells) was “enhanced activity”, the “growth inhibitory effect compared to Targretin” value (SW-480 cells) was “enhanced activity” and the “growth inhibitory effect in the presence of Irinotican” value (SW-480 cells) was “synergism”. The “growth inhibitory effect compared to Targretin” value (SKMES cells) was “enhanced activity”.

`CO[C@@]12[C@H](COC(N)=O)C3=C(C(=O)C(C)=C(N)C3=O)N1C[C@@H]1N[C@@H]12` [Mitomycin] was tested, and the TGI (Total Growth Inhibition) (A375 cells) was 8 µM and the pIC50 (A375 cells; Homo sapiens) was 5.38.
